One compound from article PMC11786100, “Chronic GIPR agonism results in pancreatic islet GIPR functional desensitisation” (Molecular Metabolism, 2025) can be followed below.

Holding throughout (assay type): cell-based
Assay [1] deals with T1, human GLP-1R (Homo sapiens, UniProt P43220).
T1 construct: Plasmids encoding full length, wild-type human or mouse GLP-1R, GIPR or glucagon receptor (GCGR) in the pcDNA5/FRT vector; host or cells: AD-293
In words: HTRF cAMP assay in transiently transfected AD-293 cells. The conditions noted are these: 30 min stimulation, n = 3–5. How it is done: (§1) AD-293 cells were transfected with desired plasmid DNA 24 h prior to cAMP quantification using the cAMP-Gs Dynamic 2 kit (Cisbio, France), as per manufacturer's protocol. Full details are provided in the supplementary methods.
(§2) AD-293 cells were added to a 12-well plate and maintained in 2 ml complete DMEM. 1 μg of specified plasmid DNA was added to each well alongside Lipofectamine 2000 (Thermo Fisher, UK). cAMP production was quantified 24 hours following transfection using homogenous time resolved fluorescence (HTRF), specifically the cAMP-Gs Dynamic 2 kit (Cisbio, France). Peptides and cells were diluted in DMEM + 1% P/S + 0.1% BSA. For peptide stability testing, cells, fresh peptide and peptide incubated with dispersed islet cells were diluted in RPMI-1640 (Thermo Fisher, UK) + 10% FBS + 1% P/S. 10 μl of peptide and 10 μl of cell suspension were added in duplicate to an opaque 96-well plate (Grenier Bio-One, Austria) and incubated at 37°C for 30 minutes. 10 μl of cAMP-d2 and anti-cAMP cryptate, both diluted in lysis buffer, were added in quick succession as per the manufacturer’s protocol. The plates were then incubated at room temperature for 45 minutes and read using the SpectraMax i3x (Molecular Devices, US).

In assay [2] the target is T2, mouse GCGR (Mus musculus, UniProt Q61606).
T2 construct: Plasmids encoding full length, wild-type human or mouse GLP-1R, GIPR or glucagon receptor (GCGR) in the pcDNA5/FRT vector; host or cells: AD-293
The description is as above. To be noted: 30 min stimulation, n = 3–5. Here is the method: as §1, §2

For assay [3], the system named is mouse GIPR. The description is as above. The conditions noted are these: 30 min stimulation, n = 3–5. How it is done:
as §1, §2

Assay [4] addresses T3, mouse GLP-1R (Mus musculus, UniProt O35659).
T3 construct: Plasmids encoding full length, wild-type human or mouse GLP-1R, GIPR or glucagon receptor (GCGR) in the pcDNA5/FRT vector; host or cells: AD-293
T3 sequence (O35659 22-463): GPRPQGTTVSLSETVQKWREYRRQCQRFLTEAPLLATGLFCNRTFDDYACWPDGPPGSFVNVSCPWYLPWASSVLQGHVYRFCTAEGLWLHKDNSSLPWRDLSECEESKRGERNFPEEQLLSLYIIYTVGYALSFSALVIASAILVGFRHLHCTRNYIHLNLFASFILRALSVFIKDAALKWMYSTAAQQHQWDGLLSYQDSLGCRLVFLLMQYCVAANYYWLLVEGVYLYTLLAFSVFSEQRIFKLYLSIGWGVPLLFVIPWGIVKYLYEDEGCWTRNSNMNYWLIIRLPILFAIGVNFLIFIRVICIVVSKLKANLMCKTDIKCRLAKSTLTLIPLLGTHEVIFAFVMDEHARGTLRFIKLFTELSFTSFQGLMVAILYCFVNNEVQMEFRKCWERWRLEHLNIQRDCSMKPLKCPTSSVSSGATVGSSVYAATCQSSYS
The description is as above. To be noted: 30 min stimulation, n = 3–5. Here is the method:
as §1, §2

For assay [5], the target named is T4, GIPR (Mus musculus, UniProt Q0P543).
T4 construct: from tissue; host or cells: dispersed pancreatic islets of C57BL/6J, CAMPER Pdx1-CreERT2 and CAMPER Som-Cre mice
T4 sequence (Q0P543 19-460): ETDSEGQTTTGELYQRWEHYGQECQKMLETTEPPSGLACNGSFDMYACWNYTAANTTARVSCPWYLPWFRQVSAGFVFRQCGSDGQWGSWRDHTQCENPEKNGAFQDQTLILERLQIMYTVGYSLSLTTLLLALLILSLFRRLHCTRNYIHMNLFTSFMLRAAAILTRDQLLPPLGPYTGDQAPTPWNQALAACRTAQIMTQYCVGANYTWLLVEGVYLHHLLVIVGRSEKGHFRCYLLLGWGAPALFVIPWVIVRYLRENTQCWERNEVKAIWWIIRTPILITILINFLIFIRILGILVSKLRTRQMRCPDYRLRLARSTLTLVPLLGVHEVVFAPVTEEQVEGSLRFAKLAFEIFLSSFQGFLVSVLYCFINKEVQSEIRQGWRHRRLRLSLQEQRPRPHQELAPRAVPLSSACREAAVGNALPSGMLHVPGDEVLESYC
In words: Ex vivo islet GIPR desensitisation (pre-treat/washout/rechallenge cAMP). The conditions noted are these: for rechallenge cAMP response after 24-hour pre-treatment: cADDis. Here is the method: Primary cultures of mouse hypothalamic neurons and dispersed pancreatic islets were transduced with the Green Up cADDis biosensor (Montana Molecular, US). Pancreatic islets from CAMPER^Pdx−1-CreERT2 and CAMPER^Som-Cre mice were not transduced. Cells were pre-treated with peptides as specified, dissolved in culture media. Following 4 h or overnight incubation and a 1-hour washout period, cells were imaged using an epifluorescence microscope at baseline (t = 3 min), following peptide addition (t = 10 min, unless specified otherwise), and following 3-isobutyl-1-methylxanthine (IBMX) (500 μM) and forskolin (FSK) (50 μM) addition (t = 3 min) to maximally stimulate the sensor. In pre-treatment experiments, islet cell fluorescence was normalised to the IBMX/FSK response which was set as 100%. In non-pre-treatment experiments, islet and neuronal cell fluorescence was normalised to both the baseline and IBMX/FSK response. The area-under-the-curve (AUC) for each cell was quantified. Full details of isolation, transduction, plating, imaging and image analysis is provided in the supplementary methods.
During this treatment, peptides were dissolved in islet culture media. Prior to imaging, the peptide washout period was 1 hour in Krebs buffer with 6 mM glucose and 0.1% BSA.
Cells were imaged in Krebs buffer with 6 mM glucose and 0.1% BSA (unless 10% FBS was specified) at 37°C using an automated epifluorescence microscope (modified Nikon Ti-2E with LED illumination). Multiple fields of view (FOV) were imaged in parallel (for islets, multiple wells of a 96 well plate were imaged in parallel), allowing hundreds to thousands of cells to be imaged every minute throughout the time course. For all acquisitions, the first three minutes were baseline recording pre-peptide addition and the last three minutes were a positive control following IBMX (500 μM) and forskolin (50 μM) addition to maximally stimulate the sensor.
Cells were imaged in a similar setup described in the previous paragraph. However, an image spitter (OptoSplit III, Cairn Research Ltd, UK) was used to enable simultaneous acquisition of cyan fluorescent protein (CFP) and yellow fluorescent protein (YFP) emission. cAMP was quantified based on the YFP/CFP FRET ratio from each cell.
cAMP quantification from the raw islet/neuronal images was performed using Fiji v1.54f (NIH). […] The fluorescence intensity of each ROI was measured at each time point. In pre-treatment experiments, islet cell fluorescence was normalised to the maximal IBMX/FSK response which was set as 100%. For non-pre-treatment experiments, neuronal and islet cell fluorescence were normalised to both the baseline and maximal IBMX/FSK response. The AUC during peptide stimulation for each cell was quantified. […]

T1 sequence (P43220 24-463): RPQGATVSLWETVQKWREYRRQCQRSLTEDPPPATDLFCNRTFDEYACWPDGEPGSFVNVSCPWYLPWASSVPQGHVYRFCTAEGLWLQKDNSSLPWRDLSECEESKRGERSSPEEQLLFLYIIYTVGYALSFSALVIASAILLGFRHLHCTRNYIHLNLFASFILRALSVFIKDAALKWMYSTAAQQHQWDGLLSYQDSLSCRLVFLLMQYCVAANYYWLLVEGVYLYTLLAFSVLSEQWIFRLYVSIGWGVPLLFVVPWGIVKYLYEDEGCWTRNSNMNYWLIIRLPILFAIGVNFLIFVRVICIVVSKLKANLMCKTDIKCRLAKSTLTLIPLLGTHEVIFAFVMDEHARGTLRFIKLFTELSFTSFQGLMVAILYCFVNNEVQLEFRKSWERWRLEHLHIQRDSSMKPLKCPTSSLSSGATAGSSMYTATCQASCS
T2 sequence (Q61606 27-485): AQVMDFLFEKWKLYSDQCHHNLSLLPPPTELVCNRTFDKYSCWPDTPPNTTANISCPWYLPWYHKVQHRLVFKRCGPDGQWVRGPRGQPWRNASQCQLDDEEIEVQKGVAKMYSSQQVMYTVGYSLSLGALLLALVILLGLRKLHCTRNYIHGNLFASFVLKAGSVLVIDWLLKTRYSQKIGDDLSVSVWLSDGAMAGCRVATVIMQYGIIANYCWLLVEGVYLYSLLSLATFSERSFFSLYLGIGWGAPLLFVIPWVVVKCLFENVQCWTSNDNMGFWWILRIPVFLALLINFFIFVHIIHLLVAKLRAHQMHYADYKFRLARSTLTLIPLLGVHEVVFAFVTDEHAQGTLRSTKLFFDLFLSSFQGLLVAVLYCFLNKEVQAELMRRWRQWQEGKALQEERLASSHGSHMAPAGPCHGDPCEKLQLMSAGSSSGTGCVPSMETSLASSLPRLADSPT

For `CC[C@H](C)[C@H](NC(=O)[C@H](CO)NC(=O)[C@H](Cc1ccc(O)cc1)NC(=O)[C@H](CC(=O)O)NC(=O)[C@H](CO)NC(=O)[C@@H](NC(=O)[C@H](Cc1ccccc1)NC(=O)[C@@H](NC(=O)CNC(=O)[C@H](CCC(=O)O)NC(=O)C(C)(C)NC(=O)[C@@H](N)Cc1ccc(O)cc1)[C@@H](C)O)[C@@H](C)CC)C(=O)N[C@@H](C)C(=O)N[C@@H](CC(C)C)C(=O)N[C@@H](CC(=O)O)C(=O)N[C@@H](CCCCN)C(=O)N[C@H](C(=O)N[C@@H](Cc1c[nH]cn1)C(=O)N[C@@H](CCC(N)=O)C(=O)N[C@@H](CCC(N)=O)C(=O)N[C@@H](CC(=O)O)C(=O)N[C@@H](Cc1ccccc1)C(=O)N[C@H](C(=O)N[C@@H](CC(N)=O)C(=O)N[C@@H](Cc1c[nH]c2ccccc12)C(=O)N[C@@H](CC(C)C)C(=O)N[C@@H](CC(C)C)C(=O)N[C@@H](C)C(=O)N[C@@H](CCC(N)=O)C(=O)N[C@@H](CCCCN)C(=O)NCC(=O)N[C@@H](CCCCNC(=O)CC[C@H](NC(=O)CCCCCCCCCCCCCCCCCCC(=O)O)C(=O)O)C(=O)N[C@@H](CCCCN)C(=O)N[C@@H](CC(N)=O)C(=O)N[C@@H](CC(=O)O)C(=O)N[C@@H](Cc1c[nH]c2ccccc12)C(=O)N[C@@H](CCCCN)C(=O)N[C@@H](Cc1c[nH]cn1)C(=O)N[C@@H](CC(N)=O)C(=O)N[C@H](C(=O)N[C@H](C(=O)N[C@@H](CCC(N)=O)C(=O)O)[C@@H](C)O)[C@@H](C)CC)C(C)C)[C@@H](C)CC` [GIP108], in assay [1], the “cAMP activation of human GLP-1R” value is “minimal activation”. For the same compound, the “cAMP activation of mouse GCGR” value in assay [2] is given as “minimal activation”. Further, the “fold lower cAMP potency than hGIP at mouse GIPR” value in assay [3] came to 19.6 fold. Moreover, in assay [4], the “cAMP activation of mouse GLP-1R” value is on record as “minimal activation”. In assay [5] (24 h GIP108 pre-treatment, TEpacVV FRET sensor, CAMPER Pdx-1-CreERT2 mice, n = 4), the “GIPR desensitisation in pancreatic beta cells” value is “GIPR desensitisation was observed in both cell types”. In assay [5] (24 h GIP108 pre-treatment, TEpacVV FRET sensor, CAMPER Som-Cre mice, n = 5), the “GIPR desensitisation in pancreatic delta cells” value was “GIPR desensitisation was observed in both cell types”. For the same compound, the “rechallenge cAMP response after 24-hour pre-treatment” value is reported as “The same effects were observed” in assay [5] (islets from HFD-induced obese mice, pre-treatment and rechallenge GIP108 (1 µM), n=3); “significantly reduced” in assay [5] (pre-treatment 100 nM or 1 μM GIP108, rechallenge GIP108 (1 μM), dispersed islets from lean mice, n = 11–12).
